From paper PMC3975964, “Protective effect of a sesamin derivative, 3-bis (3-methoxybenzyl) butane-1, 4-diol on ischemic and hypoxic neuronal injury” (Journal of Biomedical Science, 2014)

Key:
PGE2 = assay: Hypoxia-induced PGE2 release (ELISA), BV-2; type: cell-based, murine; conditions: BV-2 cells, hypoxia 30 min, BBD 10 and 20 μM
Experimental: (§1) On the day of experiment, culture media were replaced with glucose-free DMEM, then, gassed with 85% N2, 10% H2, and 5% CO2 for various time periods in the absence or presence of various doses of BBD.
Cytokines (IL-1β, IL-6) and PGE2 were measured using ELISA kits (R&D, Minneapolis, MN, USA). The absorbance at 450 nm was determined using a microplate reader (spectraMAX 340).

MDA in PC12 cells = assay: Lipid peroxidation (MDA) under hypoxia, PC12; type: cell-based, rat; conditions: hypoxia 30 min, BBD 1, 10, 20 μM
Description: as §1
Lipid peroxidation is quantified by measuring malondialdehyde (MDA) of PC12 cells and brain tissue of SD rats by lipid peroxidation (LPO) assay kit (Cayman). This kit works on the principle of condensation of one molecule of either MDA or 4-hydroxyalkenals with two molecules of N-methyl-2-phenylindole to yield a stable chromophore. MDA levels were assayed by measuring the amount expressed in 5 × 10^5 cells of PC12 and SD brain tissue, and the absorbance at 500 nm was determined using a microplate reader (spectraMAX 340).

AKT-1 = assay: Western blot of hypoxia-induced signaling, BV-2: AKT-1; type: cell-based, murine; conditions: BV-2 cells, 10 min hypoxia, BBD 20 μM
Experimental: as §1
Samples containing 25 μg of protein were separated on 12.5% (w/v) sodium dodecyl sulfate-polyacrylamide gels, and transferred to immobilon polyvinylidenedifluoride membranes (Millipore, Bedford, USA). The membranes were incubated for 2 h with 5% (w/v) dry skim milk in TBST buffer to block non-specific binding, then ERK, p38 JNK, AKT-1, COX-2, caspase-3, β-actin proteins for neuron cells were detected by a chemiluminescence detection system according to the manufacturer’s instructions (ECL, Amersham, Berkshire, UK).

`COc1cccc(CC(CO)C(CO)Cc2cccc(OC)c2)c1` (stereo not drawn) [BBD, 3-bis (3-methoxybenzyl) butane-1,4-diol] was tested, and the “hypoxia-induced PGE2 release” value (PGE2) was “decreased PGE2 release from BV-2 cells significantly”, the “hypoxia-induced increase in MDA level” value (MDA in PC12 cells) was “suppressed” and the “reduced expression of AKT-1” value (AKT-1) was 45 ± 6%.
